The values below come from patent publication US8895733B2 (Novartis AG, priority 2010, dated 2014).

Structures are written as SMILES.

T1 sequence (Q15858 whole entry): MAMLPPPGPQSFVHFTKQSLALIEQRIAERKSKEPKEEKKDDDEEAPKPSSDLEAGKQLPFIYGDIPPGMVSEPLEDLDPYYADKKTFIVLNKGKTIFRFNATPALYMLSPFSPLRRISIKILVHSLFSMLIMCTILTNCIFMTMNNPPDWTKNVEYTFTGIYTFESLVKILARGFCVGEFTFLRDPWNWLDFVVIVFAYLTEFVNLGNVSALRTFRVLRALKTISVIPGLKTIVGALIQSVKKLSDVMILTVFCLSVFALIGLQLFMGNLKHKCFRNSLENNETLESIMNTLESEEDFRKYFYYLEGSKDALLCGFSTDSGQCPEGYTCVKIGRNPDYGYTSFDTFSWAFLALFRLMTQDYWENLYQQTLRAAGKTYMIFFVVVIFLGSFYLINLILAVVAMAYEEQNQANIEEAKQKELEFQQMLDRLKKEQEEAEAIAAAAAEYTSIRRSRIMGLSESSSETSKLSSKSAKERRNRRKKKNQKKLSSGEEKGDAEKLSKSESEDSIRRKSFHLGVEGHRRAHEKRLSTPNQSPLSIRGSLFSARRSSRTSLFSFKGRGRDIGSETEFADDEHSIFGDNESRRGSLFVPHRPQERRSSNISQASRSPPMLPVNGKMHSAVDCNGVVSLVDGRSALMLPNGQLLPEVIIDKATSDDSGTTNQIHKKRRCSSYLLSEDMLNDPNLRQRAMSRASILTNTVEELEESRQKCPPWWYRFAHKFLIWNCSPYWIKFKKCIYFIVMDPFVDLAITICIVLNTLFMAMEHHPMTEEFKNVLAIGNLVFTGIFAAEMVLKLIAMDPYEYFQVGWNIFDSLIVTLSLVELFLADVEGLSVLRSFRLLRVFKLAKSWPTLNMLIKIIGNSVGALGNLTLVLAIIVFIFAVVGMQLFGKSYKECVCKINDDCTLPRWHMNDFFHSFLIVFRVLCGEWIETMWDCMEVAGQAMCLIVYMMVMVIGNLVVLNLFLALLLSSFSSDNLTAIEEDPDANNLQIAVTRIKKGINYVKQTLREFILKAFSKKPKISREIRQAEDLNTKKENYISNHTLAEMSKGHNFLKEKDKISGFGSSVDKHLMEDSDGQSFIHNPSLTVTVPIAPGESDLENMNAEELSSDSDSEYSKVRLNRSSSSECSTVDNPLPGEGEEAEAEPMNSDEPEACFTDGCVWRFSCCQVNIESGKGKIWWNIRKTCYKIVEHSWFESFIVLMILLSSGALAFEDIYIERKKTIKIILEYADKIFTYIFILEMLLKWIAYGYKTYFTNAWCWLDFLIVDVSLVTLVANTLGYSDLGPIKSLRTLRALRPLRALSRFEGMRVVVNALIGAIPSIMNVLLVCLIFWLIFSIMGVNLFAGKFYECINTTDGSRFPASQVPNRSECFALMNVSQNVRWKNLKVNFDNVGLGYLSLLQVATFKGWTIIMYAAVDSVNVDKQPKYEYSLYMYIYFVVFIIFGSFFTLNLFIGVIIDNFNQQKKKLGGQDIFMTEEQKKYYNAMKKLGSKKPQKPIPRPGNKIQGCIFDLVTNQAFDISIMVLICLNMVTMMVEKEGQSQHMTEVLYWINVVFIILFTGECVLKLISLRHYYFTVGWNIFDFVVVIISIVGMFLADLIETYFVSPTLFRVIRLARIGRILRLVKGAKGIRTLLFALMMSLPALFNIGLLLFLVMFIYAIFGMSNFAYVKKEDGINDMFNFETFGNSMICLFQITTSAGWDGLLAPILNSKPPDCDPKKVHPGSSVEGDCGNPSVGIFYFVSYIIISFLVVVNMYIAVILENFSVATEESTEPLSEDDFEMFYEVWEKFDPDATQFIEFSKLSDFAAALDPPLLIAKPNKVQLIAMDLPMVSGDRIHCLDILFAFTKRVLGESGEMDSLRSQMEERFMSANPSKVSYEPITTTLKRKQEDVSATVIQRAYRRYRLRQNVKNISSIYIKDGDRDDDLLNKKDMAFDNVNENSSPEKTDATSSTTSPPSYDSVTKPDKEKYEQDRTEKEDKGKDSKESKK

The experiment addresses T1, Nav 1.7 (Homo sapiens, UniProt Q15858).
T1 construct: expressed in transfected cells
The experiment can be described thus: Whole-cell voltage clamp electrophysiology, automated patch clamp (marker c in Table of Examples). The format is cell-based. The settings on record: marker c = Automated patch clamp data; read-out: Nav 1.7 activity. Summed up: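 A voltage protocol weighted toward inactivated-state block was used to test compounds on stably expressing cells, with pulses from −65 mV holding to −10 mV test and −100 mV. Currents came from whole-cell automated patch-clamp recordings, either IonWorks Quattro or other automated instruments, usually in perforated-patch mode.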
A general note: Patch clamp records ionic current or voltage across a cell membrane.
Regarding `COCCOc1ccc(-c2nc(-c3nc(N)nc(N(C)c4ccccc4)n3)no2)cn1` [Example 329, 6-{5-[6-(2-methoxyethoxy)pyridin-3-yl]-1,2,4-oxadiazol-3-yl}-2-N-methyl-2-N-phenyl-1,3,5-triazine-2,4-diamine], the IC50 amounted to 894 nM.
With `CN(c1ccccc1)c1nc(N)nc(-c2noc(-c3ccc(OCC#N)nc3)n2)n1` [Example 330, 2-{[5-(3-{4-Amino-6-[methyl(phenyl)amino]-1,3,5-triazin-2-yl}-1,2,4-oxadiazol-5-yl)pyridin-2-yl]oxy}acetonitrile], the IC50 is 9210 nM.
In the case of `CN(c1ccccc1)c1nc(N)nc(-c2noc(-c3ccc(OC4CCC4)nc3)n2)n1` [Example 331, 6-[5-(6-cyclobutoxypyridin-3-yl)-1,2,4-oxadiazol-3-yl]-2-N-methyl-2-N-phenyl-1,3,5-triazine-2,4-diamine], the IC50 stood at 140 nM.
`CC(C)Nc1ccc(-c2nc(-c3nc(N)nc(N(C)c4ccccc4)n3)no2)cn1` [Example 332, 2-N-Methyl-2-N-phenyl-6-(5-{6-[(propan-2-yl)amino]pyridin-3-yl}-1,2,4-oxadiazol-3-yl)-1,3,5-triazine-2,4-diamine]: the IC50 is 1110 nM.
In the case of `CN(c1ccccc1)c1nc(N)nc(-c2noc(-c3ccc(NCC4CC4)nc3)n2)n1` [Example 333, 6-(5-{6-[(cyclopropylmethyl)amino]pyridin-3-yl}-1,2,4-oxadiazol-3-yl)-2-N-methyl-2-N-phenyl-1,3,5-triazine-2,4-diamine], the IC50 was 126 nM.
With `CN(c1ccccc1)c1nc(N)nc(-c2noc(-c3ccc(=O)[nH]c3)n2)n1` [Example 334, 5-(3-{4-amino-6-[methyl(phenyl)amino]-1,3,5-triazin-2-yl}-1,2,4-oxadiazol-5-yl)-1,2-dihydropyridin-2-one], the IC50 stood at 8450 nM.
For the molecule `CN(c1ccccc1)c1nc(N)nc(-c2noc(N3CCC(Oc4ccccc4)CC3)n2)n1` [Example 336, 2-N-methyl-6-[5-(4-phenoxypiperidin-1-yl)-1,2,4-oxadiazol-3-yl]-2-N-phenyl-1,3,5-triazine-2,4-diamine], the IC50 amounted to 255 nM.
As for `CN(c1ccccc1)c1nc(N)nc(-c2noc(N[C@H]3CC[C@H](OCC(F)(F)F)CC3)n2)n1` [Example 337], the IC50 was found to be 7800 nM.
Then `CN(c1ccccc1)c1nc(N)nc(-c2noc(N3CCC(OCc4ccccc4)CC3)n2)n1` [Example 338, 6-{5-[4-(benzyloxy)piperidin-1-yl]-1,2,4-oxadiazol-3-yl}-2-N-methyl-2-N-phenyl-1,3,5-triazine-2,4-diamine], with 597 nM.
`CN(c1ccccc1)c1nc(N)nc(-c2noc(-c3ccc4c(c3)CCO4)n2)n1` [Example 339, 6-[5-(2,3-dihydro-1-benzofuran-5-yl)-1,2,4-oxadiazol-3-yl]-2-N-methyl-2-N-phenyl-1,3,5-triazine-2,4-diamine]: the IC50 worked out at 107 nM.
In the case of `CN(c1ccccc1)c1nc(N)nc(-c2noc(-c3ccc(OCC(F)(F)F)cn3)n2)n1` [Example 340, 2-N-methyl-2-N-phenyl-6-{5-[5-(2,2,2-trifluoroethoxy)pyridin-2-yl]-1,2,4-oxadiazol-3-yl}-1,3,5-triazine-2,4-diamine], the IC50 was found to be 818 nM.
`Cc1cnc(-c2nc(-c3nc(N)nc(N(C)c4ccccc4)n3)no2)s1` [Example 342]: the IC50 is 2030 nM.
Turning to `Nc1nc(Nc2cc(F)ccc2F)nc(-c2noc(-c3ccc(OCC(F)(F)F)nc3)n2)n1` [Example 343, 2-N-(2,5-difluorophenyl)-6-{5-[6-(2,2,2-trifluoroethoxy)pyridin-3-yl]-1,2,4-oxadiazol-3-yl}-1,3,5-triazine-2,4-diamine], the IC50 came out at 195 nM.
Then `CN1CCN(C(=O)c2nc(-c3nc(N)nc(N(C)c4ccccc4)n3)no2)CC1` [Example 344, 2-N-methyl-6-{5-[(4-methylpiperazin-1-yl)carbonyl]-1,2,4-oxadiazol-3-yl}-2-N-phenyl-1,3,5-triazine-2,4-diamine], with 5760 nM; and `CN(c1ccccc1)c1nc(N)nc(-c2noc(-c3nc(C(F)(F)F)cs3)n2)n1` [Example 345, 2-N-methyl-2-N-phenyl-6-{5-[4-(trifluoromethyl)-1,3-thiazol-2-yl]-1,2,4-oxadiazol-3-yl}-1,3,5-triazine-2,4-diamine], with 1970 nM; and `CN(c1ccccc1)c1nc(N)nc(-c2noc(N3CCN(C(=O)C(F)(F)F)CC3)n2)n1` [Example 347, 1-[4-(3-{4-amino-6-[methyl(phenyl)amino]-1,3,5-triazin-2-yl}-1,2,4-oxadiazol-5-yl)piperazin-1-yl]-2,2,2-trifluoroethan-1-one], with 5810 nM.
Take `CN(c1ccccc1)c1nc(N)nc(-c2noc(-c3ncccc3C(F)(F)F)n2)n1` [Example 348, 2-N-methyl-2-N-phenyl-6-{5-[3-(trifluoromethyl)pyridin-2-yl]-1,2,4-oxadiazol-3-yl}-1,3,5-triazine-2,4-diamine]: the IC50 was 328 nM.
With `CN(c1ccccc1)c1nc(N)nc(-c2noc(-c3ccc(COCC(F)(F)F)cn3)n2)n1` [Example 349, 2-N-methyl-2-N-phenyl-6-(5-{5-[(2,2,2-trifluoroethoxy)methyl]pyridin-2-yl}-1,2,4-oxadiazol-3-yl)-1,3,5-triazine-2,4-diamine], the IC50 amounted to 2.5 nM.
Regarding `Nc1nc(Nc2ccccc2)nc(-c2noc(-c3ccc(COCC(F)(F)F)cn3)n2)n1` [Example 350, 2-N-phenyl-6-(5-{5-[(2,2,2-trifluoroethoxy)methyl]pyridin-2-yl}-1,2,4-oxadiazol-3-yl)-1,3,5-triazine-2,4-diamine], the IC50 worked out at 4 nM.
In the case of `CN(c1ccccc1)c1nc(N)nc(-c2noc(-c3ccc(COCC(F)(F)F)cc3)n2)n1` [Example 351, 2-N-methyl-2-N-phenyl-6-(5-{4-[(2,2,2-trifluoroethoxy)methyl]phenyl}-1,2,4-oxadiazol-3-yl)-1,3,5-triazine-2,4-diamine], the IC50 is 11 nM.
Then `CN(c1ccccc1)c1nc(N)nc(-c2noc(N3CCC(c4ccccc4)CC3)n2)n1` [Example 352, 2-N-methyl-2-N-phenyl-6-[5-(4-phenylpiperidin-1-yl)-1,2,4-oxadiazol-3-yl]-1,3,5-triazine-2,4-diamine], with 1280 nM.
For `CN(c1ccccc1)c1nc(N)nc(-c2noc([C@H]3CCCN3C(=O)OC(C)(C)C)n2)n1` [Example 353, tert-butyl (2R)-2-(3-{4-amino-6-[methyl(phenyl)amino]-1,3,5-triazin-2-yl}-1,2,4-oxadiazol-5-yl)pyrrolidine-1-carboxylate], the IC50 was found to be 893 nM.
Regarding `CN(c1ccccc1)c1nc(N)nc(-c2noc(N3CCC(Oc4ccccn4)CC3)n2)n1` [Example 354, 2-N-methyl-2-N-phenyl-6-{5-[4-(pyridin-2-yloxy)piperidin-1-yl]-1,2,4-oxadiazol-3-yl}-1,3,5-triazine-2,4-diamine], the IC50 is 1200 nM.
In the case of `CN(c1ccccc1)c1nc(N)nc(-c2noc(N3CCC(O)(c4ccccc4)CC3)n2)n1` [Example 355, 1-(3-{4-amino-6-[methyl(phenyl)amino]-1,3,5-triazin-2-yl}-1,2,4-oxadiazol-5-yl)-4-phenylpiperidin-4-ol], the IC50 came to 2620 nM.
`CN(c1ccccc1)c1nc(N)nc(-c2noc(-c3ccc(OC4CCCCC4)nc3)n2)n1` [Example 356, 6-{5-[6-(cyclohexyloxy)pyridin-3-yl]-1,2,4-oxadiazol-3-yl}-2-N-methyl-2-N-phenyl-1,3,5-triazine-2,4-diamine]: the IC50 is 20 nM.
For `CC(Oc1ccc(-c2nc(-c3nc(N)nc(N(C)c4ccccc4)n3)no2)cn1)C(F)(F)F` (stereo not drawn) [Example 357, 2-N-methyl-2-N-phenyl-6-(5-{6-[(1,1,1-trifluoropropan-2-yl)oxy]pyridin-3-yl}-1,2,4-oxadiazol-3-yl)-1,3,5-triazine-2,4-diamine], the IC50 worked out at 55 nM.
For `CC(OCC(F)(F)F)c1ccc(-c2nc(-c3nc(N)nc(N(C)c4ccccc4)n3)no2)nc1` (stereo not drawn) [Example 358, 2-N-Methyl-2-N-phenyl-6-(5-{5-[1-(2,2,2-trifluoroethoxy)ethyl]pyridin-2-yl}-1,2,4-oxadiazol-3-yl)-1,3,5-triazine-2,4-diamine], the IC50 amounted to 56 nM.
In the case of `CN(c1ccccc1)c1nc(N)nc(-c2noc(-c3ccc(OCCC(F)(F)F)nc3)n2)n1` [Example 359, 2-N-methyl-2-N-phenyl-6-{5-[6-(3,3,3-trifluoropropoxy)pyridin-3-yl]-1,2,4-oxadiazol-3-yl}-1,3,5-triazine-2,4-diamine], the IC50 was 24 nM.
Regarding `COC1(c2ccccc2)CCN(c2nc(-c3nc(N)nc(N(C)c4ccccc4)n3)no2)CC1` [Example 360, 6-[5-(4-methoxy-4-phenylpiperidin-1-yl)-1,2,4-oxadiazol-3-yl]-2-N-methyl-2-N-phenyl-1,3,5-triazine-2,4-diamine], the IC50 came out at 2140 nM.
For `CN(c1ccccc1)c1nc(N)nc(-c2noc(-c3ccc(OC4CCOCC4)nc3)n2)n1` [Example 361, 2-N-methyl-6-{5-[6-(oxan-4-yloxy)pyridin-3-yl]-1,2,4-oxadiazol-3-yl}-2-N-phenyl-1,3,5-triazine-2,4-diamine], the IC50 is 273 nM.
Then `CN(c1ccccc1)c1nc(N)nc(-c2noc(N3CCC(SCC(F)(F)F)CC3)n2)n1` [Example 362, 2-N-methyl-2-N-phenyl-6-(5-{4-[(2,2,2-trifluoroethyl)sulfanyl]piperidin-1yl}-1,2,4-oxadiazol-3-yl)-1,3,5-triazine-2,4-diamine], with 711 nM; and `Nc1nc(Nc2ccccc2)nc(-c2noc(-c3ccc(OCCC(F)(F)F)nc3)n2)n1` [Example 363, 2-N-phenyl-6-{5-[6-(3,3,3-trifluoropropoxy)pyridin-3-yl]-1,2,4-oxadiazol-3-yl}-1,3,5-triazine-2,4-diamine], with 7 nM; and `CN1CCC(Oc2ccc(-c3nc(-c4nc(N)nc(N(C)c5ccccc5)n4)no3)cn2)C1` (stereo not drawn) [Example 364, 2-N-methyl-6-(5-{6-[(1-methylpyrrolidin-3-yl)oxy]pyridin-3-yl}-1,2,4-oxadiazol-3-yl)-2-N-phenyl-1,3,5-triazine-2,4-diamine], with 1620 nM.
